ChEMBL document CHEMBL4840333, “Ulleunganilines A-C, Trichostatin Analogues Bearing a Modified Side Chain from Streptomyces sp. 13F051” (J Nat Prod, 2021)
Active and inactive are the calls of the source. No cut-off for these calls is given here.

How the values were obtained:
Histone deacetylase = assay: Inhibition of HDAC in human HeLa nuclear extract using Fluor de Lys as substrate incubated for 20 mins by fluorometric assay; assay type: subcellular, Nucleus
HeLa = assay: Cytotoxicity against human HeLa cells assessed as reduction in cell viability incubated for 72 hrs by EZ-Cytox colorimetric assay; assay type: functional, cell-based
A549 = assay: Cytotoxicity against human A549 cells assessed as reduction in cell viability incubated for 72 hrs by EZ-Cytox colorimetric assay; assay type: functional, cell-based; details: for IC50: A549, 72 h
MDA-MB-231 = assay: Cytotoxicity against human MDA-MB-231 cells assessed as reduction in cell viability incubated for 72 hrs by EZ-Cytox colorimetric assay; assay type: functional, cell-based; details: for IC50: MDA-MB-231, 72 h
SW480 = assay: Cytotoxicity against human SW480 cells assessed as reduction in cell viability incubated for 72 hrs by EZ-Cytox colorimetric assay; assay type: functional, cell-based; details: for IC50: SW480, 72 h
U2OS = assay: Cytotoxicity against human U2OS cells assessed as reduction in cell viability incubated for 72 hrs by EZ-Cytox colorimetric assay; assay type: functional, cell-based

CC(/C=C/C(=O)N[C@@H](CCC(N)=O)C(=O)O)=C\[C@@H](C)C(=O)c1ccc(N(C)C)cc1
IC50 (Histone deacetylase): > 100 µM

CC(/C=C/C(=O)Nc1ccc(C(=O)N[C@@H](CCC(N)=O)C(=O)O)cc1)=C\[C@@H](C)C(=O)c1ccc(N(C)C)cc1
IC50 (HeLa): > 100 µM
IC50 (A549): > 100 µM
IC50 (MDA-MB-231): > 100 µM
IC50 (SW480): > 100 µM
IC50 (U2OS): > 100 µM
IC50 (Histone deacetylase): 19.96 µM

CNc1ccc(C(=O)[C@H](C)C[C@@H](C)C(=O)O)cc1
IC50 (HeLa): > 100 µM
IC50 (A549): > 100 µM
IC50 (MDA-MB-231): > 100 µM
IC50 (SW480): > 100 µM
IC50 (U2OS): > 100 µM
IC50 (Histone deacetylase): > 100 µM

CC(/C=C/C(=O)NO[C@@H]1O[C@H](CO)[C@@H](O)[C@H](O)[C@H]1O)=C\[C@@H](C)C(=O)c1ccc(N(C)C)cc1
IC50 (SW480): 72 µM
IC50 (U2OS): 94.9 µM
IC50 (Histone deacetylase): 23.63 µM

CC(/C=C/C(N)=O)=C\[C@@H](C)C(=O)c1ccc(N(C)C)cc1
IC50 (Histone deacetylase): > 100 µM

CC(/C=C/C(=O)NO)=C\[C@@H](C)C(=O)c1ccc(N(C)C)cc1
Activity (HeLa): Active
Activity (A549): Active
Activity (MDA-MB-231): Active
Activity (SW480): Active
Activity (U2OS): Active

CC(/C=C/C(=O)O)=C\[C@@H](C)C(=O)c1ccc(N(C)C)cc1 [TRICHOSTATIC ACID]
IC50 (Histone deacetylase): 95.13 µM

C[C@H](C[C@@H](C)C(=O)c1ccc(N(C)C)cc1)C(=O)O
IC50 (HeLa): > 100 µM
IC50 (A549): > 100 µM
IC50 (MDA-MB-231): > 100 µM
IC50 (SW480): > 100 µM
IC50 (U2OS): > 100 µM
IC50 (Histone deacetylase): 39.67 µM

CC(/C=C/C(=O)N[C@@H](CCC(=O)O)C(=O)O)=C\[C@@H](C)C(=O)c1ccc(N(C)C)cc1
IC50 (Histone deacetylase): > 100 µM

CNC(=O)/C=C/C(C)=C/[C@@H](C)C(=O)c1ccc(N(C)C)cc1
IC50 (Histone deacetylase): > 100 µM
